# Reference: patent publication US4563462A, “Substance AX-2, a process for producing the same and an antitumor composition containing the same” (Kyowa Hakko Kogyo Kabushiki, priority 1982, dated 1986)
# Experiments:
# Peripherical leucocytes = Peripherical leucocytes count (WBC) in Sarcoma 180 bearing mice; type: in vivo, ddy male mouse; settings: blood 4 days after tumour implantation
# Procedure: (§1) On each occasion, 5×10^6 cells of Sarcoma 180 solid tumour were implanted into the abdominal cavity of a ddy male mouse. 7 days after this, the cells were collected from the ascites.The cells were washed once with a sterilized physiological solution of sodium chloride and suspended in a sterilized physiological solution of sodium chloride at a concentration of 5×10^7 cells/ml, of which 0.1 ml was implanted under the skin at the right artpit of a ddy male mouse having a weight of 20±2 g. 24 hours after this, the active substance was administered into the vein at the tail of each mouse of a group consisting of 5 mice. In order to investigate the anti-tumour activity, 7 days after administration of AX-2, the major axis (a) and minor axis (b) of the tumour were measured, from which the volume of the tumour was calculated as a X b^2 /2. The effect of AX-2 is expressed by T/C which denotes the volume ratio of T [mice administered with AX-2 ] to C (untreated group). Table 1 indicates the effect of AX-2 agsinst Sarcoma 180 solid tumour by injection (iv.).
# The peripherical leucocytes count (WBC) was measured by using a micro cell counter in the following manner. Sarcoma 180 solid tumour was implanted by injection (ip.). 4 days after this, blood was collected from the eye ground, of which 20 μl was added to 9.98 ml of Cellkit-7 (a reagent commercially available from Toyo Rika K.K., Japan) to dissolve the red cells. In this solution a drop of saponin was dispersed, followed by measuring with a micro cell counter.
# Sarcoma 180 solid tumour = assay: Effect on Sarcoma 180 solid tumour (volume ratio T/C, iv.); type: in vivo, ddy male mouse; settings: for T/C (tumour volume ratio): 7 days after administration; for Survials (7 days): Sarcoma 180 mice
# Procedure: (1) Effect on Sarcoma 180 solid tumour:
# as §1
# A T/C of 0.25 was obtained from the group, to which each 15 mg/kg of AX-2 had been administered. In this table, ED50 denotes a dose capable of reducing the volume of the tumour to 50% of the corresponding volume of the control group. Such volumes were calculated by plotting a relation between the dose and T/C on a logarithmic graph which indiates T/C on the ordinate and the dose on the abscissa, and calculating the dose and anti-tumour activity as a straight line by the method of least squares. The dose corresponding to T/C of 0.5 is defined as ED50.
# Solubility = type: physicochemical
# Melanoma B16 tumour = assay: Effects on Melanoma B16 tumour (survival, ip.); type: in vivo, C57 BL/6 male mouse
# Procedure: (2) Effects on Melanoma B16 tumour:
# Tumour cells were collected from Melanoma B16 tumour cells lined in the abdominal cavity of a C57 BL/6 male mouse and suspended in a sterilized physiological solution of sodium chloride at a concentration of 2.5×10^7 cell/ml, of which 0.2 ml was implanted into the abdominal cavity of each mouse. The anti-tumour activity was indicated by T/C % where T and C respectively indicate the average survival days of treated and untreated groups.
# As apparent from this table, it was noted that by administration of AX-2 in an amount of 6 mg/kg, the T/C value was more than 277% and 1/5 of the mice were alive 60 days after the beginning of the administration. The therapeutic index [a dose showing a maximum therapeutic effect/a dose showing a T/C of 130%] was 193.
# [1] = Acute toxicity (LD50) of AX-2, single injection, 14 days observation, Behrens-Korber's method; design: species or system Mice (ddy strain); settings: mouse, in vivo, male ddy mice
# From the text: The acute toxicity and anti-tumour activity of AX-2 are as follows. I. Acute toxicity (LD50) of AX-2:
# Mice (ddy strain; male; weight 20±2 g; each group consisting of 5 mice) were used as test animals. On each occasion, the active substance of this invention was once administered to the animal by injection (ip. or iv.).
compound,measurement,setting,value
COC1=C(C)C(=O)C2=C(C1=O)C(COC(N)=O)C1(OC)NCC3C1N23 (stereo not shown) [AX-2],Peripherical leucocytes count (WBC) ± SD/mm^3,Peripherical leucocytes; 1.88 mg/kg,7730 ± 49 /mm^3
same,Peripherical leucocytes count (WBC) ± SD/mm^3,Peripherical leucocytes; 3.75 mg/kg,6730 ± 115 /mm^3
same,Peripherical leucocytes count (WBC) ± SD/mm^3,Peripherical leucocytes; 7.5 mg/kg,4100 ± 55 /mm^3
same,Peripherical leucocytes count (WBC) ± SD/mm^3,Peripherical leucocytes; 10 mg/kg,2800 ± 80 /mm^3
same,Peripherical leucocytes count (WBC) ± SD/mm^3,Peripherical leucocytes; 15 mg/kg,2950 ± 42 /mm^3
same,Peripherical leucocytes count (WBC) ± SD/mm^3,Peripherical leucocytes; 30 mg/kg,2300 ± 60 /mm^3
same,T/C (tumour volume ratio),Sarcoma 180 solid tumour; 1.88 mg/kg,0.77
same,Survials (7 days),Sarcoma 180 solid tumour; 1.88 mg/kg,4/4
same,T/C (tumour volume ratio),Sarcoma 180 solid tumour; 3.75 mg/kg,0.64
same,Survials (7 days),Sarcoma 180 solid tumour; 3.75 mg/kg,4/4
same,T/C (tumour volume ratio),Sarcoma 180 solid tumour; 7.5 mg/kg,0.42
same,Survials (7 days),Sarcoma 180 solid tumour; 7.5 mg/kg,4/4
same,T/C (tumour volume ratio),Sarcoma 180 solid tumour; 10 mg/kg,0.34
same,Survials (7 days),Sarcoma 180 solid tumour; 10 mg/kg,4/4
same,T/C (tumour volume ratio),Sarcoma 180 solid tumour; 15 mg/kg,0.25
same,Survials (7 days),Sarcoma 180 solid tumour; 15 mg/kg,4/4
same,T/C (tumour volume ratio),Sarcoma 180 solid tumour; 30 mg/kg,0.05
same,Survials (7 days),Sarcoma 180 solid tumour; 30 mg/kg,3/4
same,effect (dose dependence),Sarcoma 180 solid tumour; 7.5 to 15 mg/kg,the effect increased according to the increased dose
same,ED50,"Sarcoma 180 solid tumour; Mus musculus, Sarcoma-180, 168 h, least squares from dose vs T/C log plot, read-out: ED50 (dose reducing tumour volume to 50% of control, T/C 0.5)",5.7 mg/kg
same,Solubility,"Solubility; ethyl acetate, chloroform, acetone, methanol and ethanol",Soluble
same,Solubility,Solubility; petroleum ether and n-hexane,Insoluble
same,Solubility,Solubility; water,Slightly soluble
same,therapeutic index [a dose showing a maximum therapeutic effect/a dose showing a T/C of 130%],Melanoma B16 tumour,193
same,Average survival days (days ± SD),Melanoma B16 tumour; 0.031 mg/kg,18.4 ± 1.5 days
same,Survived after 60 days after implantation,Melanoma B16 tumour; 0.031 mg/kg,0/5
same,T/C (average survival days treated/untreated),Melanoma B16 tumour; 0.031 mg/kg,144%
same,Average survival days (days ± SD),Melanoma B16 tumour; 0.063 mg/kg,13.0 ± 1.7 days
same,Survived after 60 days after implantation,Melanoma B16 tumour; 0.063 mg/kg,0/5
same,T/C (average survival days treated/untreated),Melanoma B16 tumour; 0.063 mg/kg,140%
same,Average survival days (days ± SD),Melanoma B16 tumour; 0.125 mg/kg,19.4 ± 2.0 days
same,Survived after 60 days after implantation,Melanoma B16 tumour; 0.125 mg/kg,0/5
same,T/C (average survival days treated/untreated),Melanoma B16 tumour; 0.125 mg/kg,152%
same,Average survival days (days ± SD),Melanoma B16 tumour; 0.25 mg/kg,17.8 ± 1.1 days
same,Survived after 60 days after implantation,Melanoma B16 tumour; 0.25 mg/kg,0/5
same,T/C (average survival days treated/untreated),Melanoma B16 tumour; 0.25 mg/kg,140%
same,Average survival days (days ± SD),Melanoma B16 tumour; 0.5 mg/kg,21.0 ± 2.8 days
same,Survived after 60 days after implantation,Melanoma B16 tumour; 0.5 mg/kg,0/5
same,T/C (average survival days treated/untreated),Melanoma B16 tumour; 0.5 mg/kg,164%
same,Average survival days (days ± SD),Melanoma B16 tumour; 1.0 mg/kg,24.0 ± 3.5 days
same,Survived after 60 days after implantation,Melanoma B16 tumour; 1.0 mg/kg,0/5
same,T/C (average survival days treated/untreated),Melanoma B16 tumour; 1.0 mg/kg,189%
same,Average survival days (days ± SD),Melanoma B16 tumour; 2.0 mg/kg,27.4 ± 5.4 days
same,Survived after 60 days after implantation,Melanoma B16 tumour; 2.0 mg/kg,0/5
same,T/C (average survival days treated/untreated),Melanoma B16 tumour; 2.0 mg/kg,214%
same,Average survival days (days ± SD),Melanoma B16 tumour; 4.0 mg/kg,33.4 ± 9.2 days
same,Survived after 60 days after implantation,Melanoma B16 tumour; 4.0 mg/kg,0/5
same,T/C (average survival days treated/untreated),Melanoma B16 tumour; 4.0 mg/kg,261%
same,Average survival days (days ± SD),Melanoma B16 tumour; 6.0 mg/kg,35.4 ± 5.3 days
same,Survived after 60 days after implantation,Melanoma B16 tumour; 6.0 mg/kg,1/5
same,Average survival days (days ± SD),Melanoma B16 tumour; 8.0 mg/kg,10.6 ± 4.2 days
same,Survived after 60 days after implantation,Melanoma B16 tumour; 8.0 mg/kg,0/5
same,T/C (average survival days treated/untreated),Melanoma B16 tumour; 8.0 mg/kg,93%
same,Average survival days (days ± SD),Melanoma B16 tumour; 12.0 mg/kg,4.8 ± 1.6 days
same,Survived after 60 days after implantation,Melanoma B16 tumour; 12.0 mg/kg,0/5
same,T/C (average survival days treated/untreated),Melanoma B16 tumour; 12.0 mg/kg,26%
same,LD50 at 336 h,[1]; ip.,7.8 mg/kg
same,LD50 at 336 h,[1]; iv.,27 mg/kg
